Experimental data: patent publication US20240376480A1, “TREATMENT OF ELEVATED METABOLITE LEVELS USING NANOCARRIERS” (RAMOT AT TEL-AVIV UNIVERSITY LTD., priority 2021, published 2024)

Key:
aah1Δ apt1Δ yeast model [1] = assay: Yeast growth assay (OD600) in excess-adenine yeast model; assay type: cell-based; conditions: low and high adenine concentrations (1 mg/L and 4 mg/L)
Method: Yeast growth assays: the strains used in this work were BY4741 (WT) and the adenine salvage mutant, aah1Δ apt1Δ, that was established by a disruption of both AAH1 and APT1. The strains were grown overnight at 30° C. in synthetic defined SD medium (6.7 g/L Yeast Nitrogen Base without Amino Acids (Difco) and 20 g/L glucose (Merck)) containing a specific mixture of amino acids and nucleobases (without adenine). For OD600 measurements, strains were diluted to OD600=0.01. 200 μL of cells were platted on 96 wells microplates (Greiner, F-BOTTOM) with increasing concentrations of adenine (1, 2 and 4 mg/L) and with 2.5% (V/V) of the VLP-riboswitch nano-carries and incubated at 30° C. for 25 h with continuous shaking. OD600 was measured using Tecan™ SPARK 10M plate reader.
The aah1Δ apt1Δ mutant yeast model was grown in media without adenine or in media with 1, 2, and 4 mg/L of adenine, respectively.

aah1Δ apt1Δ yeast model [2] = conditions: TA added to the media; cited from earlier work
[3] = ligand adenine; cited from earlier work

| Molecule | growth of the model yeast (aah1Δ apt1Δ yeast model [1]) | amyloid-like structures of the adenine inside the yeast (aah1Δ apt1Δ yeast model [2]) | Kd [3] [nM] |
| --- | --- | --- | --- |
| O=C(OC[C@H]1O[C@@H](OC(=O)c2cc(O)c(O)c(OC(=O)c3cc(O)c(O)c(O)c3)c2)[C@H](OC(=O)c2cc(O)c(O)c(OC(=O)c3cc(O)c(O)c(O)c3)c2)[C@@H](OC(=O)c2cc(O)c(O)c(OC(=O)c3cc(O)c(O)c(O)c3)c2)[C@@H]1OC(=O)c1cc(O)c(O)c(OC(=O)c2cc(O)c(O)c(O)c2)c1)c1cc(O)c(O)c(OC(=O)c2cc(O)c(O)c(O)c2)c1 [TA, tannic acid] | showed an improved growth | significant decrease |  |
| A58U riboswitch: pbuE adenine riboswitch with uracil substituted for adenine at position 58 (nucleic acid, expressed or natural sequence) GCGCGTTGTATAACCTCAATAATATGGTTTGAGGGTGTCTACCAGGAACCGTAAATTCCTGATTACAACGC |  |  | 273 ± 17 |
